This note sets out measurements from publication PMC12024213, “Mechanism Insight of Cell Death Signaling by Thymol Derivatives on Trypanosomatidae Protozoan Parasites” (Antibiotics, 2025).

In one series the test system is T. cruzi. Description: ATP level, CellTiter-Glo, T. cruzi. The class given is cell-based, Trypanosoma cruzi. Conditions: IC90, 24 h, luminescence. On the procedure:
(§1) The adenosine triphosphate (ATP) level was measured using the CellTiter-Glo Luminescent Cell Viability Assay (Promega, Madrid, Spain). The mitochondria in which most cellular oxidations occur is considered the main source of cell’s ATP; any damage and/or malfunction of this organelle generate the depletion of ATP levels.
(Cellular ATP, detected with luciferase, serves as a proxy for viable cell number.)

The nature of series [1]: Cytotoxicity assay on murine macrophages (alamarBlue). The class given is cell-based. Conditions: mouse, J774.A1 macrophage cell line, mean ± SD. On the procedure: (§2) Cytotoxicity effect of the tested derivatives was conducted using macrophages of the murine cell line J774.A1 (American Type Culture Collection #TIB-67, city, country), as previously described. The cells were maintained in DMEM at 37 °C in a 5% CO2 humidified incubator. All the plates containing alamarBlue® were analyzed using a plate reader EnSpire Multimode Plate Reader® at excitation and emission wavelengths of 570 and 585 nm, respectively (PerkinElmer, ThermoFisher Scientific, Madrid, Spain). The IC50 (concentrations able to inhibit 50% of parasites), IC90 (concentrations able to inhibit 90% of parasites), and CC50 (concentration able to inhibit 50% of murine macrophages) values were determined for each compound by nonlinear regression using GraphPad software.
(Alamar Blue is a resazurin reagent that responds to reducing activity.)

Series [2] can be described thus: alamarBlue assay on L. amazonensis promastigotes. The format is cell-based, Leishmania amazonensis. Conditions: mouse; CC50 J774.A1 / IC50 L. amazonensis promastigotes; read-out: Selectivity Leishmania SI (CC50/IC50). On the procedure: (§3) The assay was conducted using the alamarBlue® method as previously described. Briefly, promastigotes of L. amazonensis were grown at 26 °C in Schneider’s medium (US Biological, Life sciences) and supplemented with 10% heat-inactivated fetal bovine serum and 0.04% of sodium bicarbonate. In a 96-well microtiter plates (Corning™, Corning, NY, USA) a serial dilutions of thymol derivatives were first prepared, and later, 10^6 parasites/mL were added into each well. Subsequently, 10% of alamarBlue® was added to the entire plate. The plates were incubated for 72 h at 26 °C.
as §2

Series [3] deals with L. amazonensis promastigotes. Description: alamarBlue assay on L. amazonensis promastigotes. The note with it: Leishmania amazonensis. The format is cell-based, Leishmania amazonensis. On the procedure: as §3, §2
For a further series, the system named is L. amazonensis. Description: ATP level, CellTiter-Glo, L. amazonensis. The class given is cell-based, Leishmania amazonensis. Conditions: IC90, 24 h, luminescence. On the procedure:
as §1

Series [4] relates to T. cruzi epimastigotes. Description: Monodansylcadaverine staining of autophagic vacuoles, T. cruzi. The format is cell-based, Trypanosoma cruzi. The note with it: 24 h treatment, confocal microscopy. On the procedure: The present method consists of staining the autophagic vacuoles with the treated cells by ion trapping and specific interactions with the vesicle membrane lipids. The experiment was carried out by following the manufacturer’s recommendations, and as described previously. After 24 h of incubation, cells were stained with MDC reagent at 5 mM and incubated at 26 °C for 30 min in µ-Slide 8 (Ibidi, Gräfelfing, Germany). Later, the cells were washed with PBS and observed with Leica DMI 4000 B.

Series [5] in a line: Intramacrophagic stage assay, L. amazonensis in J774.A1 macrophages. The class given is cell-based, Leishmania amazonensis. The note with it: mouse; CC50 J774.A1 / IC50 intracellular L. amazonensis; read-out: Selectivity Leishmania SI (CC50/IC50). On the procedure:
(§4) Briefly, in a 96-well plate, macrophages from the J774.A1 cell line were seeded at a final concentration of 2 × 10^5 cells/mL in Dulbecco’s Modified Eagle Medium (DMEM) and maintained at 37 °C in a 5% CO2 atmosphere until fully adhesion. […] After infection, plates were washed using DMEM to eliminate external parasites. Subsequently, infected macrophages were treated with different concentrations of active compounds for 24 h. Later, macrophages were lysed using 30 μL of medium, Schneider for Leishmania, and in liver infusion tryptose for Trypanosoma, containing 0.05% of sodium dodecyl sulfate (SDS) for 30 s under agitation. Afterwards, 170 μL of the appropriated medium was derivatives added to each well to give a final volume of 200 μL. Subsequently, 10% of alamarBlue® was added into each well and the plate was incubated at 26 °C for 72 h. Cytotoxicity effect of the tested derivatives was conducted using macrophages of the murine cell line J774.A1 (American Type Culture Collection #TIB-67, city, country), as previously described. The cells were maintained in DMEM at 37 °C in a 5% CO2 humidified incubator.

The test system of series [6] is intramacrophage L. amazonensis. The description is as above. The note with it: Leishmania amazonensis; intramacrophage stage in J774.A1, 24 h treatment; mean ± SD; read-out: L. amazonensis Intracellular IC50. The format is cell-based, Leishmania amazonensis. On the procedure: as §4
Series [7] can be described thus: alamarBlue assay on T. cruzi epimastigotes. The class given is cell-based, Trypanosoma cruzi. The note with it: mouse; CC50 J774.A1 / IC50 T. cruzi epimastigotes; read-out: Selectivity Trypanosoma SI (CC50/IC50). On the procedure: (§5) In a 96-well plate, a serial dilution of the tested derivatives was performed in liver infusion tryptose medium supplemented with 10% heat inactivated fetal bovine serum. Later, 100 µL of 5 × 10^5 cells/mL of epimastigotes was added to each well. Afterwards, 20 µL of alamarBlue® was added to each well, and the plate was maintained at 26 °C for 72 h.
as §2

Series [8] has as its system T. cruzi epimastigotes. Description: alamarBlue assay on T. cruzi epimastigotes. The class given is cell-based, Trypanosoma cruzi. The note with it: Trypanosoma cruzi. On the procedure:
as §5, §2

The nature of series [9]: Intramacrophagic stage assay, T. cruzi in J774.A1 macrophages. The class given is cell-based, Trypanosoma cruzi. Conditions: mouse; CC50 J774.A1 / IC50 intracellular T. cruzi; read-out: Selectivity Trypanosoma SI (CC50/IC50). On the procedure:
(§6) Briefly, in a 96-well plate, macrophages from the J774.A1 cell line were seeded at a final concentration of 2 × 10^5 cells/mL in Dulbecco’s Modified Eagle Medium (DMEM) and maintained at 37 °C in a 5% CO2 atmosphere until fully adhesion. Cells were infected either with L. amazonensis promastigotes (at a ratio of 1:10) or epimastigotes of T. cruzi (at a ratio of 1:7) (macrophage: parasite) and incubated at 37 °C in 5% CO2 for 24 h for Leishmania and 48 h for Trypanosoma. After infection, plates were washed using DMEM to eliminate external parasites. Subsequently, infected macrophages were treated with different concentrations of active compounds for 24 h. Later, macrophages were lysed using 30 μL of medium, Schneider for Leishmania, and in liver infusion tryptose for Trypanosoma, containing 0.05% of sodium dodecyl sulfate (SDS) for 30 s under agitation. Afterwards, 170 μL of the appropriated medium was derivatives added to each well to give a final volume of 200 μL. Subsequently, 10% of alamarBlue® was added into each well and the plate was incubated at 26 °C for 72 h.
as §2

A further series deals with intramacrophage T. cruzi. The series is described as above. The format is cell-based, Trypanosoma cruzi. Conditions: Trypanosoma cruzi; intramacrophage stage in J774.A1, 24 h treatment; mean ± SD; read-out: T. cruzi Intracellular IC50. On the procedure: as §6, §2
Where [10] appears, read: 72 h, promastigotes, alamarBlue, 72 h at 26 °C, mean ± SD, triplicates, read-out: L. amazonensis Promastigote IC50.
Where [11] appears, read: 72 h, epimastigotes, alamarBlue, 72 h at 26 °C, mean ± SD, triplicates, read-out: T. cruzi Epimastigote IC50.

Read-outs that look alike come from different tables or passages of the source.

Turning to `COc1ccc(C(=O)Oc2cc(C)ccc2C(C)C)cc1` [Derivative 9, thymyl anysoate], the “decrease of ATP production compared to negative control” value in the series on T. cruzi was determined as 65%; in the series on L. amazonensis, 84%. This compound displayed a CC50 in series [1] above 300 µM. For the same compound, the selectivity ratio in series [2] was above 10.3; in series [5], above 19.7; in series [7], above 11.2; in series [9], above 33. Besides, the IC50 is 29.1 ± 3.8 µM in series [3] (setting [10]); 22.9 µM in series [3] (abstract, stage not stated, read-out: IC50 against L. amazonensis (abstract)); 15.2 ± 0.8 µM in series [6]; 26.8 ± 2.2 µM in the series with T. cruzi epimastigotes [8] (setting [11]); 9.1 ± 0.5 µM in the series on intramacrophage T. cruzi. For the same compound, the “autophagic vacuoles (MDC staining)” value in the series on T. cruzi epimastigotes [4] is “Induction of autophagy”.

As to `Cc1ccc(C(C)C)c(OC(=O)c2ccccn2)c1` [Derivative 10, thymyl picolinate], the “decrease of ATP production compared to negative control” value with T. cruzi is reported as 50%; in the series on L. amazonensis, 67%. This compound gave a CC50 in series [1] of 254.5 ± 1.9 µM. Also, the selectivity ratio is 7.4 in series [2], 10.1 in series [5], 7.2 in series [7] and 8.8 in series [9]. The IC50 stood at 34.4 ± 2.3 µM in series [3] (setting [10]); 25.3 ± 0.8 µM in series [6]; 35.5 ± 2.5 µM in the series with T. cruzi epimastigotes [8] (setting [11]); 25.2 µM in the series on T. cruzi epimastigotes [8] (abstract, stage not stated, read-out: IC50 against T. cruzi (abstract)); 28.8 ± 5.6 µM in the series on intramacrophage T. cruzi. Moreover, the “autophagic vacuoles (MDC staining)” value with T. cruzi epimastigotes [4] was “Induction of autophagy”.

The term CC50 denotes the concentration giving 50% cytotoxicity. One may read the IC50 as the concentration that gives 50% inhibition.
